Patent publication US11497212B2, “Substituted thiophenyl uracils, salts thereof and the use thereof as herbicidal agents” (Syngenta Crop Protection AG, priority 2017, dated 2022)

Tests used:
Assay type in all cases: in vivo
Abutilon theophrasti [1] = assay: Herbicidal action post-emergence (greenhouse pot trial); conditions: application rate 80 g/ha, scored visually after about 3 weeks vs untreated controls
Procedure, shortened: (§1)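 Visual efficacy score after ~3 wk in greenhouse vs untreated control; 100% = plants dead, 0% = like control. Spray: aqueous suspension/emulsion of WP or EC, 0.5% additive, 600 L/ha water, ≤80 g/ha. Plants in sandy loam pots, treated at one-leaf stage, 2–3 wk post-sowing.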

Alopecurus myosuroides [2] = assay: as above; conditions: application rate 80 g/ha, scored visually after about 3 weeks vs untreated controls
Procedure, shortened: as §1

Amaranthus retroflexus [3] = assay: as above; conditions: application rate 80 g/ha, scored visually after about 3 weeks vs untreated controls
Procedure, shortened: as §1

Echinochloa crus-galli [4] = assay: as above; conditions: application rate 80 g/ha, scored visually after about 3 weeks vs untreated controls
Procedure, shortened: as §1

Lolium rigidum [5] = assay: as above; conditions: application rate 80 g/ha, scored visually after about 3 weeks vs untreated controls
Procedure, shortened: as §1

Matricaria inodora [6] = assay: as above; conditions: application rate 80 g/ha, scored visually after about 3 weeks vs untreated controls
Procedure, shortened: as §1

Pharbitis purpurea [7] = assay: as above; conditions: application rate 80 g/ha
Procedure, shortened: as §1

Polygonum convolvulus = assay: as above; conditions: application rate 80 g/ha, scored visually after about 3 weeks vs untreated controls
Procedure, shortened: as §1

Setaria viridis [8] = assay: as above; conditions: application rate 80 g/ha, scored visually after about 3 weeks vs untreated controls
Procedure, shortened: as §1

Stellaria media [9] = assay: as above; conditions: application rate 80 g/ha, scored visually after about 3 weeks vs untreated controls
Procedure, shortened: as §1

Veronica persica [10] = assay: as above; conditions: application rate 80 g/ha
Procedure, shortened: as §1

Viola tricolor [11] = assay: as above; conditions: application rate 80 g/ha
Procedure, shortened: as §1

Oryza sativa = assay: Crop compatibility post-emergence (greenhouse pot trial)
Procedure, shortened: (§2)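 Crop seeds sown in sandy loam and grown in the greenhouse 2 to 3 weeks were treated at the one-leaf stage. WP or EC formulations were sprayed as aqueous suspension/emulsion with 0.5% additive at 600 L/ha. Damage was scored visually about 3 weeks later versus untreated controls (0% = like control, 100% = dead).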

Triticum aestivum = assay: as above
Procedure, shortened: as §2

Abutilon theophrasti [12] = assay: Herbicidal action pre-emergence (greenhouse pot trial); conditions: application rate 320 g/ha, scored after about 3 weeks
Procedure, shortened: (§3)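 Efficacy scored visually as percent of untreated control (0% = like control, 100% = dead) roughly 3 weeks after treatment. Compounds, as WP or EC plus 0.5% additive in 600 L/ha water, were applied at up to 320 g/ha to soil surface covering freshly sown seeds.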

Alopecurus myosuroides [13] = assay: as above; conditions: application rate 320 g/ha, scored after about 3 weeks
Procedure, shortened: as §3

Amaranthus retroflexus [14] = assay: as above; conditions: application rate 320 g/ha, scored after about 3 weeks
Procedure, shortened: as §3

Avena fatua = assay: as above; conditions: application rate 320 g/ha
Procedure, shortened: as §3

Cyperus esculentus = assay: as above; conditions: application rate 320 g/ha
Procedure, shortened: as §3

Echinochloa crus-galli [15] = assay: as above; conditions: application rate 320 g/ha, scored after about 3 weeks
Procedure, shortened: as §3

Hordeum murinum [16] = assay: as above; conditions: application rate 320 g/ha
Procedure, shortened: as §3

Lolium rigidum [17] = assay: as above; conditions: application rate 320 g/ha
Procedure, shortened: as §3

Matricaria inodora [18] = assay: as above; conditions: application rate 320 g/ha, scored after about 3 weeks
Procedure, shortened: as §3

Pharbitis purpurea [19] = assay: as above; conditions: application rate 320 g/ha
Procedure, shortened: as §3

Setaria viridis [20] = assay: as above; conditions: application rate 320 g/ha, scored after about 3 weeks
Procedure, shortened: as §3

Stellaria media [21] = assay: as above; conditions: application rate 320 g/ha, scored after about 3 weeks
Procedure, shortened: as §3

Veronica persica [22] = assay: as above; conditions: application rate 320 g/ha
Procedure, shortened: as §3

Viola tricolor [23] = assay: as above; conditions: application rate 320 g/ha, scored after about 3 weeks
Procedure, shortened: as §3

Zea mays [24] = assay: Crop compatibility post-emergence (greenhouse pot trial); conditions: application rate 20 g/ha
Procedure, shortened: as §2

Zea mays [25] = assay: Crop compatibility pre-emergence (greenhouse pot trial); conditions: effect vs untreated controls
Procedure, shortened: (§4)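 Greenhouse pot test in which WP or EC formulations are applied to the covering soil before emergence (600 L/ha water, 0.5% additive). Crop effects are scored by eye as % after about 3 weeks, relative to untreated plants.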

Digitaria sanguinalis [26] = assay: Herbicidal action post-emergence (greenhouse pot trial); conditions: application rate 80 g/ha
Procedure, shortened: as §1

Hordeum murinum [27] = assay: as above; conditions: application rate 80 g/ha, scored visually after about 3 weeks vs untreated controls
Procedure, shortened: as §1

Digitaria sanguinalis [28] = assay: Herbicidal action pre-emergence (greenhouse pot trial); conditions: application rate 80 g/ha
Procedure, shortened: as §3

Glycine max = assay: Crop compatibility pre-emergence (greenhouse pot trial); conditions: application rate 80 g/ha, effect vs untreated controls
Procedure, shortened: as §4

SMILES | Abutilon theophrasti (Efficacy in %) (Abutilon theophrasti [1]) | Alopecurus myosuroides (Efficacy in %) (Alopecurus myosuroides [2]) | Amaranthus retroflexus (Efficacy in %) (Amaranthus retroflexus [3]) | Echinochloa crus-galli (Efficacy in %) (Echinochloa crus-galli [4]) | Lolium rigidum (Efficacy in %) (Lolium rigidum [5]) | Matricaria inodora (Efficacy in %) (Matricaria inodora [6]) | Pharbitis purpurea (Efficacy in %) (Pharbitis purpurea [7]) | Polygonum convolvulus (Efficacy in %) (Polygonum convolvulus) | Setaria viridis (Efficacy in %) (Setaria viridis [8]) | Stellaria media (Efficacy in %) (Stellaria media [9]) | Veronica persica (Efficacy in %) (Veronica persica [10]) | Viola tricolor (Efficacy in %) (Viola tricolor [11]) | Abutilon theophrasti (Efficacy in %) (Abutilon theophrasti [12]) | Alopecurus myosuroides (Efficacy in %) (Alopecurus myosuroides [13]) | Amaranthus retroflexus (Efficacy in %) (Amaranthus retroflexus [14]) | Echinochloa crus-galli (Efficacy in %) (Echinochloa crus-galli [15]) | Hordeum murinum (Efficacy in %) (Hordeum murinum [16]) | Lolium rigidum (Efficacy in %) (Lolium rigidum [17]) | Matricaria inodora (Efficacy in %) (Matricaria inodora [18]) | Pharbitis purpurea (Efficacy in %) (Pharbitis purpurea [19]) | other results
CC(Sc1cc(-n2c(=O)cc(C(F)(F)F)n(C)c2=O)c(F)cc1Cl)C(=O)NCC1CCCS1(=O)=O (centres unmarked) [I.1-275] | 100% | 90% | 100% | 90% | 80% | 100% | 100% | 100% | 100% | 100% | 100% | 100% | 100% | 100% | 100% | 100% | 90% | 90% | 100% | 100% | Oryza sativa (Efficacy in %) (Oryza sativa; application rate 20 g/ha): 20%; Triticum aestivum (Efficacy in %) (Triticum aestivum; application rate 20 g/ha): 20%; Avena fatua (Efficacy in %) (Avena fatua): 100%; Cyperus esculentus (Efficacy in %) (Cyperus esculentus): 80%; Setaria viridis (Efficacy in %) (Setaria viridis [20]): 100%; Stellaria media (Efficacy in %) (Stellaria media [21]): 100%; Veronica persica (Efficacy in %) (Veronica persica [22]): 100%; Viola tricolor (Efficacy in %) (Viola tricolor [23]): 100%
COCCOC(=O)C(C)Sc1cc(-n2c(=O)cc(C(F)(F)F)n(C)c2=O)c(F)cc1Cl (centres unmarked) [I.1-1] | 100% | 80% | 100% | 100% | 90% | 100% | 100% | 100% | 100% | 100% | 100% | 100% | 100% | 80% | 100% | 100% | 90% | 80% | 100% | 100% | Oryza sativa (Efficacy in %) (Oryza sativa; application rate 5 g/ha): 20%; Triticum aestivum (Efficacy in %) (Triticum aestivum; application rate 5 g/ha): 20%; Zea mays (Efficacy in %) (Zea mays [24]): 20%; Avena fatua (Efficacy in %) (Avena fatua): 90%; Cyperus esculentus (Efficacy in %) (Cyperus esculentus): 100%; Setaria viridis (Efficacy in %) (Setaria viridis [20]): 100%; Stellaria media (Efficacy in %) (Stellaria media [21]): 100%; Veronica persica (Efficacy in %) (Veronica persica [22]): 100%; Viola tricolor (Efficacy in %) (Viola tricolor [23]): 100%; Zea mays (Efficacy in %) (Zea mays [25]; application rate 20 g/ha): 20%
CCOCCCOC(=O)C(C)Sc1cc(-n2c(=O)cc(C(F)(F)F)n(C)c2=O)c(F)cc1Cl (centres unmarked) [I.1-27] | 100% | 90% | 100% | 100% | 80% | 100% | 100% | 100% | 100% | 100% | 100% | 100% | 100% | 80% | 100% | 100% | 80% | 90% | 100% | 100% | Digitaria sanguinalis (Efficacy in %) (Digitaria sanguinalis [26]): 100%; Hordeum murinum (Efficacy in %) (Hordeum murinum [27]): 80%; Oryza sativa (Efficacy in %) (Oryza sativa; application rate 5 g/ha): 10%; Triticum aestivum (Efficacy in %) (Triticum aestivum; application rate 5 g/ha): 10%; Digitaria sanguinalis (Efficacy in %) (Digitaria sanguinalis [28]): 100%; Setaria viridis (Efficacy in %) (Setaria viridis [20]): 100%; Stellaria media (Efficacy in %) (Stellaria media [21]): 100%; Veronica persica (Efficacy in %) (Veronica persica [22]): 100%; Viola tricolor (Efficacy in %) (Viola tricolor [23]): 100%; Glycine max (Efficacy in %) (Glycine max): 20%; Zea mays (Efficacy in %) (Zea mays [25]; application rate 80 g/ha): 0%
